Test results published in patent US20240246954A1, “COMPOSITIONS AND METHODS FOR INHIBITING KRAS” (TheRas, Inc., priority 2021, published 2024).

How the values were obtained:
[1] = target: T1, Avi-KRAS G12D/Q25A (1-169) GppNHp/3×FLAG-PI3KCA (157-299) (Homo sapiens, UniProt P01116, G12D/Q25A); assay: HTRF PI3KCA-KRAS G12D/Q25A-GppNHp disruption assay; format: biochemical; conditions: 1 h incubation
T1 construct: Avi-KRAS G12D/Q25A (1-169) GppNHp
Protocol: (§1) The HTRF assay employed the following protocol:
(§2) Compounds were dispensed in assay plate (384-well, Grenier Bione #784075) using Echo (model 555) with dose response settings: 200 nL final volume, titration from 100 μM as a 10-point dilution series. Protein mix was prepared in assay buffer, and dispensed on plates, 10 μL per well, then incubated for 1 h at room temperature, with 700 rpm shaking. Reagents mix was prepared and dispensed on plates, 10 μL per well, then incubated for 1 h at room temperature, with 700 rpm shaking.
(§3) Plates were analyzed on an Envision plate reader using the following setting: Excitation 320 nm, Bandwidth […]; Emission 615 nm, Bandwidth […], Gain 100%, Flashes 100, Lag 60 μs. Data was reported as percentage of activity, with DMSO as 100%. Data was plotted and analyzed using Prism 8.

[2] = target: T2, Avi-KRAS G12D (1-169) GppNHp/RAF1 RBD-3×FLAG (52-151) (Homo sapiens, UniProt P01116, G12D); assay: HTRF Raf1-KRAS G12D-GppNHp disruption assay; format: biochemical; conditions: 1 h incubation
T2 construct: Avi-KRAS G12D (1-169) GppNHp
T2 sequence (P01116 1-169 isoform P01116-2 G12D limits assumed): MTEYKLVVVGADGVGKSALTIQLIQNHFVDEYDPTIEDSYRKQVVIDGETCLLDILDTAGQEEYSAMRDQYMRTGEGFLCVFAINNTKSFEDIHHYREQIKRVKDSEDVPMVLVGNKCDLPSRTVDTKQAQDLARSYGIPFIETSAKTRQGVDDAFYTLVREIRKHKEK
Protocol: as §1, §2, §3

T1 sequence (P01116 1-169 isoform P01116-2 G12D/Q25A limits assumed): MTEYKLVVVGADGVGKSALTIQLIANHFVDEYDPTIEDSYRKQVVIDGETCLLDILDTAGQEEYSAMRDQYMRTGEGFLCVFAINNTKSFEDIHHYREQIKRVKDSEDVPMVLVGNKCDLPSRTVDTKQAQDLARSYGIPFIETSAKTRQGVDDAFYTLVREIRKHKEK

Row | SMILES | IC50 [1] [µM] | IC50 [2] [µM]
1 | Nc1nc2c(-c3c(C4CCC4)cc4c(N5CCNCC5)ncnc4c3F)ccc(F)c2s1 [Compound 154] | 10 to 30 | 10 to 30
2 | CN1CCC[C@H]1COc1nc(N2CCNCC2)c2cc(-c3cccnc3)c(-c3ccc(F)c4sc(N)nc34)c(F)c2n1 [Compound 155, 7-fluoro-4-(8-fluoro-2-(((S)-1-methylpyrrolidin-2-yl)methoxy)-4-(piperazin-1-yl)-6-(pyridin-3-yl)quinazolin-7-yl)benzo[d]thiazol-2-amine] | 1 to 10 | 10 to 30
3 | CN(c1nc(OC[C@@H]2C[C@@H](F)CN2C)nc2c(F)c(-c3ccc(F)c4sc(N)nc34)c(C(F)(F)F)cc12)C1CN(C(=O)CN)C1 [Compound 156] | 10 to 30 | 10 to 30
4 | Nc1nc2c(-c3c(-c4ccoc4)cc4c(N5CC6CCC(C5)N6)nc(OCC56CCCN5CCC6)nc4c3F)ccc(F)c2s1 [Compound 159] | 10 to 30 | 0.1 to 1
5 | CN1CC(F)(F)C[C@H]1COc1nc(N2CCNCC2)c2cc(C(F)(F)F)c(-c3ccc(F)c4sc(N)nc34)c(F)c2n1 [Compound 160] | 10 to 30 | 10 to 30
6 | Oc1cc(-c2c(Cl)cc3c(N4CC5CCC(C4)N5)nc(OCC45CCCN4CCC5)nc3c2F)c2ccccc2c1 [Compound 161] | 1 to 10 | 1 to 10
7 | NC(=O)N1CCN(c2nc(OCC34CCCN3CCC4)nc3c(F)c(-c4ccc(F)c5sc(N)nc45)c(Cl)cc23)CC1 [Compound 162] | 10 to 30 | 10 to 30
8 | CN(c1nc(OCC23CCCN2CCC3)nc2c(F)c(-c3ccc(F)c4sc(N)nc34)c(-c3ccoc3)cc12)C1CN(C(=O)CN)C1 [Compound 163] | 10 to 30 | 10 to 30
9 | CN(c1nc(OCC23CCCN2CCC3)nc2c(F)c(-c3ccc(F)c4sc(N)nc34)c(Cl)cc12)C1CN(C(=O)CN)C1 [Compound 164] | 10 to 30 | 10 to 30
10 | NC(=O)N1CCN(c2nc(OCC34CCCN3CCC4)nc3c(F)c(-c4ccc(F)c5sc(N)nc45)c(C(F)(F)F)cc23)CC1 [Compound 165, 4-(7-(2-amino-7-fluorobenzo[d]thiazol-4-yl)-8-fluoro-2-((tetrahydro-1H-pyrrolizin-7a(5H)-yl)methoxy)-6-(trifluoromethyl)quinazolin-4-yl)piperazine-1-carboxamide] | 10 to 30 | 10 to 30
11 | CN(c1nc(OC[C@@H]2CCCN2CCF)nc2c(F)c(-c3ccc(F)c4sc(N)nc34)c(C(F)(F)F)cc12)C1CNC1 [Compound 166] | 10 to 30 | 10 to 30
12 | CCN(c1nc(OC[C@@H]2CCCN2C)nc2c(F)c(-c3ccc(F)c4sc(N)nc34)c(C(F)(F)F)cc12)C1CNC1 [Compound 170] | 10 to 30 | 10 to 30
13 | CN1CCC[C@H]1COc1nc(N2CCNCC2)c2cc(CC#N)c(-c3ccc(F)c4sc(N)nc34)c(F)c2n1 [Compound 175, 2-[7-(2-amino-7-fluoro-1,3-benzothiazol-4-yl)-8-fluoro-2-[[(2S)-1-methylpyrrolidin-2-yl]methoxy]-4-piperazin-1-yl-quinazolin-6-yl]acetonitrile] | 1 to 10 | 10 to 30
14 | CN1CCC[C@H]1COc1nc(N2CCNCC2)c2cc(-c3cnn(C)c3)c(-c3ccc(F)c4sc(N)nc34)c(F)c2n1 [Compound 176] | 10 to 30 | 10 to 30
15 | CCc1cc2c(N3CCNCC3)nc(OC[C@@H]3CCCN3C)nc2c(F)c1-c1ccc(F)c2sc(N)nc12 [Compound 177, 4-(6-ethyl-8-fluoro-2-(((S)-1-methylpyrrolidin-2-yl)methoxy)-4-(piperazin-1-yl)quinazolin-7-yl)-7-fluorobenzo[d]thiazol-2-amine] | 10 to 30 | 10 to 30
16 | N#CCCN1CCC[C@H]1COc1nc(NC2CNC2)c2cc(Cl)c(-c3ccc(F)c4sc(N)nc34)c(F)c2n1 [Compound 178] | 10 to 30 | 10 to 30
17 | CC(C)N(c1nc(OC[C@@H]2CCCN2C)nc2c(F)c(-c3ccc(F)c4sc(N)nc34)c(Cl)cc12)C1CNC1 [Compound 180] | 10 to 30 | 10 to 30
18 | NCC(=O)N1CCN(c2nc(OC[C@]34CCCN3C[C@H](F)C4)nc3c(F)c(-c4ccc(F)c5sc(N)nc45)c(C(F)(F)F)cc23)CC1 [Compound 181] | 1 to 10 | 1 to 10
19 | CN(c1nc(OCC23CCCN2CCC3)nc2c(F)c(-c3ccc(F)c4sc(N)nc34)c(Cl)cc12)C1CN(C(N)=O)C1 [Compound 182] | 10 to 30 | 1 to 10
20 | CN1CCC[C@H]1COc1nc(N(CCC#N)C2CN(C(=O)CN)C2)c2cc(Cl)c(-c3ccc(F)c4sc(N)nc34)c(F)c2n1 [Compound 183] | 10 to 30 | 10 to 30
21 | NC(=O)N1CCN(c2nc(OCC34CCCN3CCC4)nc3c(F)c(-c4ccc(F)c5sc(N)nc45)c(-c4ccoc4)cc23)CC1 [Compound 186] | 10 to 30 | 10 to 30
22 | Nc1nc2c(-c3c(C(F)(F)F)cc4c(N5CCNCC5)nc(OCC56CCCN5CCC6)nc4c3F)ccc(F)c2o1 [Compound 189] | 1 to 10 | 1 to 10

Second part, the molecule after the results:

Row | IC50 [1] [µM] | IC50 [2] [µM] | SMILES
23 | 1 to 10 | 1 to 10 | CC1(Nc2nc(OCC34CCCN3CCC4)nc3c(F)c(-c4ccc(F)c5sc(N)nc45)c(Cl)cc23)CNC1 [Compound 190]
24 | 1 to 10 | 1 to 10 | CN1CCC[C@H]1COc1nc(N2CCNCC2)c2cc(OC(F)(F)F)c(-c3ccc(F)c4sc(N)nc34)c(F)c2n1 [Compound 191]
25 | 1 to 10 | 1 to 10 | Nc1nc2c(-c3c(Cl)cc4c(NC5CNC5)nc(OCC56CCCN5CCC6)nc4c3F)ccc(F)c2o1 [Compound 192]
26 | 10 to 30 | 10 to 30 | CCN(c1nc(OC[C@@H]2CCCN2C)nc2c(F)c(-c3ccc(F)c4sc(N)nc34)c(Cl)cc12)C1CNC1 [Compound 196]
27 | 10 to 30 | 10 to 30 | CCN(c1nc(OC[C@@H]2CCCN2C)nc2c(F)c(-c3ccc(F)c4sc(N)nc34)c(Cl)cc12)C1CN(C(=O)CN)C1 [Compound 197]
28 | 1 to 10 | 1 to 10 | CC1(C)CN2CCCC2(COc2nc(N3CCNCC3)c3cc(C(F)(F)F)c(-c4ccc(F)c5sc(N)nc45)c(F)c3n2)C1 (stereo not drawn) [Compound 198]
29 | 10 to 30 | 10 to 30 | CN(c1nc(OCC23CCCN2CC(C)(C)C3)nc2c(F)c(-c3ccc(F)c4sc(N)nc34)c(C(F)(F)F)cc12)C1CNC1 (stereo not drawn) [Compound 201]
30 | 1 to 10 | 0.1 to 1 | NCC(=O)N1CC[C@@H]2[C@H]1CN2c1nc(OCC23CCCN2CCC3)nc2c(F)c(-c3ccc(F)c4sc(N)nc34)c(C(F)(F)F)cc12 [Compound 202]
31 | 10 to 30 | 10 to 30 | CN1CCC[C@H]1COc1nc(N2CCNCC2)c2cc(C3(C#N)CCC3)c(-c3ccc(F)c4sc(N)nc34)c(F)c2n1 [Compound 203, 1-[7-(2-amino-7-fluoro-1,3-benzothiazol-4-yl)-8-fluoro-2-[[(2S)-1-methylpyrrolidin-2-yl]methoxy]-4-piperazin-1-yl-quinazolin-6-yl]cyclobutanecarbonitrile]
32 | 10 to 30 | 10 to 30 | CN(c1nc(OC[C@@H]2CC(F)(F)CN2C)nc2c(F)c(-c3ccc(F)c4sc(N)nc34)c(C(F)(F)F)cc12)C1CNC1 [Compound 204]
33 | 10 to 30 | 10 to 30 | Cc1cc2c(N3CCNCC3)nc(OC[C@@H]3CCCN3C)nc2c(F)c1-c1ccc(F)c2sc(N)nc12 [Compound 205]
